Measurements from US20170354659A1, “COMPOSITIONS CONTAINING DEFINED CAFFEINE AND THEOBROMINE LEVELS WITH ENHANCED COGNITIVE PROPERTIES” (The Hershey Company, priority 2014, published 2017).

Tests used:
[1] = tested on: regions of the brain associated with caffeine cravings; assay: fMRI brain blood flow/connectivity analysis; format: in vivo, human; conditions: subjects with a caffeine habit, FIG. 1 and 3
Excerpt: Measurement or detection of changes in the brain can be done using functional MRI (fMRI) and functional brain network analyses as known in the art. The following is an exemplary study using known techniques based upon fMRI scanning of human brains.
These examples represent an intervention study (number of subjects=24) with a randomized controlled, double-blind, placebo-controlled crossover design. The study is designed to ensure completion of all possibilities in the order of delivering the test samples, i.e. each subject is administered each of the possible test beverages in different order. An approximately equal number of men and women should be included and ethnic groups and minorities should also be included. For initial baseline testing, subjects undergo 16 hours of caffeine and chocolate withdrawal for a baseline testing and then participate in four separate brain scanning visits over 5-10 weeks. […] As determined from a medical screening session, any subjects with active neurological dysfunction (such as a major Axis I psychopathology, Alzheimer's disease, Parkinson's disease, prior history of stroke, epilepsy, or serious CNS trauma, ADHD, migraines, hypertension, diabetes, peripheral vascular disease, or taking vasoactive medications, such as antihypertensive medications) are excluded from the study. […]

[2] = tested on: brain blood flow; conditions: difference between caffeine and theobromine, 6 participants; cited from earlier work

| SMILES | change in blood flow/connectivity by fMRI [1] | brain blood flow difference [2] [ml/100 gm tissue/min] |
| --- | --- | --- |
| Cn1c(=O)c2c(ncn2C)n(C)c1=O [Caffeine, caffeine] | typical reduction in blood flow/connectivity | – |
| Cn1cnc2c1c(=O)[nH]c(=O)n2C [theobromine] | – | 5.03 |
